Several values for one entry are separate records, joined by “and”; a condition that tells them apart may be missing. Equal entries are not always repeated.
Legend:
[1] = Kinetic thiol consumption assay with model thiol glutathione; assay type: physicochemical; parameters: Rate constant with glutathione (k(GSH)): unit not given here; conditions: for Rate constant with glutathione (k(GSH)): 500 μM ligand, 5 μM thiol, phosphate buffer pH 8; for Rate constant with Glutathione: Protein: Glutathione, cysteine position NA, in h-1
Procedure, shortened: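 GSH 5 μM, degassed phosphate buffer pH 8, TCEP beads 2% v/v; acrylamide added; RT, 1 h; fluorescence ex/em 380/470 nm; normalized to DMSO/thiol control; k from first-order exponential decay fit.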

[2] = target: T1, human cyclin-dependent kinase 2 (Cdk2) (Homo sapiens, UniProt P24941); assay: Kinetic thiol consumption assay with wild type Cdk2 (C177); assay type: binding; parameters: key to Rate enhancement, Cdk2 WT: k(Cdk2) divided by k(model thiol); Rate constant with Cdk2 (k(Cdk2)): unit not given here; conditions: for Rate constant with Cdk2 (k(Cdk2)): 500 μM ligand, 5 μM thiol, phosphate buffer pH 8; for Rate enhancement, Cdk2 WT: no additional mutations; for Rate constant with Cdk2 WT: Protein: Cdk2, cysteine position WT, in h^-1; for k(Cdk2)/k(Cdk2_mut) rate enhancement: model thiol Cdk2[C177A, F80C, K278C]; for k(Cdk2)/k(GSH) rate enhancement: model thiol glutathione
T1 construct: poly-histidine; made in house; host or cells: E. coli
Procedure, shortened: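 His-tagged human Cdk2 (single surface cysteine C177), expressed in E. coli, or a model thiol at 5 μM in degassed phosphate buffer pH 8 was pre-treated with immobilized TCEP beads (2% v/v) before acrylamide addition. Fluorescence (ex/em 380/470 nm) was read after 1 h at room temperature, normalized to DMSO/thiol-only control and plotted versus time.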

[3] = target: T2, Cdk2[C177A, F80C, K278C] (Homo sapiens, UniProt P24941, C177A/F80C/K278C); assay: Kinetic thiol consumption assay with mutant Cdk2 as model thiol; assay type: binding; parameters: unit not given here; conditions: 500 μM ligand, 5 μM thiol, phosphate buffer pH 8
T2 construct: poly-histidine; made in house; host or cells: E. coli
Procedure, shortened: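 Model thiol: His-tagged human Cdk2 C177A/F80C/K278C (two engineered surface cysteines), E. coli-expressed, 5 μM in degassed phosphate buffer pH 8 with immobilized TCEP beads (2% v/v). Fluorescence (ex/em 380/470 nm) followed over time at room temperature, normalized to DMSO/thiol control. First-order decay fit gives rate constants.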

[4] = target: T3, Cdk2(C177A, F80C) (Homo sapiens, UniProt P24941, C177A/F80C); assay: Kinetic thiol consumption assay with Cdk2 mutant F80C, incl. kobs versus concentration (Kd, k2); assay type: binding; parameters: key to Rate enhancement, Cdk2 F80C: Cdk2 rate constant divided by model-thiol rate constant; conditions: additional mutation C177A; for Rate constant with Cdk2 F80C: Protein: Cdk2, cysteine position F80C, in h^-1
T3 construct: poly-histidine; made in house; host or cells: E. coli
Procedure, shortened: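 His-tagged Cdk2(C177A/F80C) from E. coli or model thiol, 5 μM in degassed phosphate buffer pH 8 with TCEP beads, reacted with acrylamide ligands; fluorescence (ex/em 380/470 nm) normalized to DMSO control and fitted to first-order decay for kobs. Kd and k2 obtained from hyperbolic fit of kobs versus ligand concentration.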

[5] = target: T4, Cdk2(H71C) (C177A) (Homo sapiens, UniProt P24941, C177A/H71C); assay: Kinetic thiol consumption assay with Cdk2 mutant H71C; assay type: binding; parameters: key to Rate enhancement, Cdk2 H71C: rate constant with Cdk2 ÷ rate constant with model thiol (fold); conditions: additional mutation C177A; for Rate constant with Cdk2 H71C: Protein: Cdk2, cysteine position H71C, in h^-1
T4 construct: poly-histidine; made in house; host or cells: E. coli
Procedure, shortened: (§1)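 His-tagged single-surface-cysteine Cdk2 mutants (C177A background) from E. coli, 5 μM in degassed phosphate buffer pH 8, pre-treated with immobilized TCEP beads. Fluorescence (ex/em 380/470 nm) read after 1 h at room temperature, normalized to DMSO/thiol-only control; first-order decay fits gave rate constants, divided by model-thiol rate for rate enhancement.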

[6] = target: T5, Cdk2(S276C) (C177A) (Homo sapiens, UniProt P24941, C177A/S276C); assay: Kinetic thiol consumption assay with Cdk2 mutant S276C; assay type: binding; parameters: key to Rate enhancement, Cdk2 S276C: rate constant with Cdk2 ÷ rate constant with model thiol (fold); conditions: additional mutation C177A; for Rate constant with Cdk2 S276C: Protein: Cdk2, cysteine position S276C, in h^-1
T5 construct: poly-histidine; made in house; host or cells: E. coli
Procedure, shortened: as §1

[7] = target: T6, Cdk2(N272C) (C177A) (Homo sapiens, UniProt P24941, C177A/N272C); assay: Kinetic thiol consumption assay with Cdk2 mutant N272C; assay type: binding; parameters: key to Rate enhancement, Cdk2 N272: rate constant with Cdk2 ÷ rate constant with model thiol (fold); conditions: for Rate enhancement, Cdk2 N272: Cdk2 N272, additional mutation C177A; for Rate constant with Cdk2 N272C: Protein: Cdk2, cysteine position N272C, additional mutation C177A, in h^-1
T6 construct: poly-histidine; made in house; host or cells: E. coli
Procedure, shortened: as §1

[8] = target: T7, Cdk2(T182C) (C177A) (Homo sapiens, UniProt P24941, C177A/T182C); assay: Kinetic thiol consumption assay with Cdk2 mutant T182C; assay type: binding; parameters: key to Rate enhancement, Cdk2 T182C: rate constant with Cdk2 ÷ rate constant with model thiol (fold); conditions: additional mutation C177A; for Rate constant with Cdk2 T182C: Protein: Cdk2, cysteine position T182C, in h^-1
T7 construct: poly-histidine; made in house; host or cells: E. coli
Procedure, shortened: as §1

[9] = target: T8, Cdk2(R122C) (C177A) (Homo sapiens, UniProt P24941, C177A/R122C); assay: Kinetic thiol consumption assay with Cdk2 mutant R122C; assay type: binding; parameters: key to Rate enhancement, Cdk2 R122C: rate constant with Cdk2 ÷ rate constant with model thiol (fold); conditions: additional mutation C177A; for Rate constant with Cdk2 R122C: Protein: Cdk2, cysteine position R122C, in h-1
T8 construct: poly-histidine; made in house; host or cells: E. coli
Procedure, shortened: as §1

[10] = target: T9, Cdk2(S181C) (C177A) (Homo sapiens, UniProt P24941, C177A/S181C); assay: Kinetic thiol consumption assay with Cdk2 mutant S181C; assay type: binding; parameters: key to Rate enhancement, Cdk2 S181C: rate constant with Cdk2 ÷ rate constant with model thiol (fold); conditions: additional mutation C177A; for Rate constant with Cdk2 S181C: Protein: Cdk2, cysteine position S181C, in h^-1
T9 construct: poly-histidine; made in house; host or cells: E. coli
Procedure, shortened: as §1

Structure (SMILES)	Rate constant with Cdk2 (k(Cdk2)) [2]	Rate enhancement, Cdk2 WT [2]	Rate constant with Cdk2 WT [2]	k(Cdk2)/k(Cdk2_mut) rate enhancement [2]	k(Cdk2)/k(GSH) rate enhancement [2]	Rate constant with Cdk2[C177A, F80C, K278C] (k(Cdk2_mut)) [3]	Rate enhancement, Cdk2 F80C [4]	Rate constant with Cdk2 F80C [4]	Rate enhancement, Cdk2 H71C [5]	Rate enhancement, Cdk2 S276C [6]	Rate constant with Cdk2 S276C [6]	Rate enhancement, Cdk2 N272 [7]	Rate constant with Cdk2 N272C [7]	Rate enhancement, Cdk2 T182C [8]	Rate constant with Cdk2 T182C [8]	Rate enhancement, Cdk2 R122C [9]	Rate constant with Cdk2 R122C [9]	Rate enhancement, Cdk2 S181C [10]	Rate constant with glutathione (k(GSH)) [1]	Rate constant with Glutathione [1]	further results
C=CC(=O)NC1CC(NC(=O)C2CCC2)C1 (stereo not shown) [CA-202]	0.00543	1.211	0.009448	4.114	1.074	0.00132	0.2601	0.00203	0	0.3503	0.002734	0.6405	0.004999	2.301	0.01796	0.2272	0.001773	1.095	0.00506	0.007805	Rate constant with Cdk2 S181C [10]: 0.008545
C=CC(=O)NC1CC2CC1C1CCCC21 (stereo not shown) [CA-159]	0.00232	0.5437	0.003842	1.79	0.5547	0.0013	0	–	0.5333	0.1634	0.001155	0.2158	0.001525	0.9382	0.00663	0.2488	0.001758	0	0.00418	0.007067	Rate constant with Cdk2 H71C [5]: 0.003769
C=CC(=O)N1CCCC(N2C(=O)CC3(CCCC3)C2=O)C1 (stereo not shown) [CA-236]	0.00116	0.1258	0.001156	0.2924	0.2286	0.00395	0.4074	0.003744	0.1903	0.0707	0.0006497	0.09859	0.0009059	1.042	0.009576	0.2009	0.001846	0.2301	0.00506	0.009189	Rate constant with Cdk2 H71C [5]: 0.001749; Rate constant with Cdk2 S181C [10]: 0.002114

Further lines, with some results ahead:

Rate constant with Cdk2 (k(Cdk2)) [2]	Rate enhancement, Cdk2 WT [2]	Rate constant with Cdk2 WT [2]	k(Cdk2)/k(Cdk2_mut) rate enhancement [2]	k(Cdk2)/k(GSH) rate enhancement [2]	Rate constant with Cdk2[C177A, F80C, K278C] (k(Cdk2_mut)) [3]	Rate enhancement, Cdk2 F80C [4]	Rate constant with Cdk2 F80C [4]	Rate enhancement, Cdk2 H71C [5]	Rate enhancement, Cdk2 S276C [6]	Rate constant with Cdk2 S276C [6]	Rate enhancement, Cdk2 N272 [7]	Rate constant with Cdk2 N272C [7]	Rate enhancement, Cdk2 T182C [8]	Rate constant with Cdk2 T182C [8]	Rate enhancement, Cdk2 R122C [9]	Rate constant with Cdk2 R122C [9]	Rate enhancement, Cdk2 S181C [10]	Structure (SMILES)	Rate constant with glutathione (k(GSH)) [1]	Rate constant with Glutathione [1]	further results
0.02004	1.15	0.02004	0.1472	1.152	0.1361	4.984	0.08682	1.254	1.776	0.03094	1.548	0.02696	18.35	0.3197	0.7819	0.01362	2.069	C=CC(=O)N1CCc2sccc2C1c1cccs1 (stereo not shown) [CA-056]	0.0174	0.01742	Rate constant with Cdk2 H71C [5]: 0.02185; Rate constant with Cdk2 S181C [10]: 0.03604
0.035 and 0.03473	1.411	0.03473	0.5928	1.4 and 1.411	0.05859	1.215	0.02991	0.2924	1.314	0.03236	0.3406	0.008386	2.5	0.06154	0.6852	0.01687	0.487	C=CC(=O)Nc1cccc(C(F)(F)F)c1 [EL-1007]	0.025 and 0.02461	0.02462	hit classification, Example 1 ([2]; hits defined as kCdk2/kGSH>5.8 (3 standard deviations over the mean)): negative compound; Rate constant with Cdk2 H71C [5]: 0.007199; Rate constant with Cdk2 S181C [10]: 0.01199
0.02811	0.6381	0.02811	1.586	0.6384	0.01772	0.3805	0.01676	1.456	1.852	0.08156	0.7126	0.03139	4.62	0.2035	0.4465	0.01967	0.2036	C=CC(=O)N1CCn2cccc2C1c1ccccc1 (stereo not shown) [CA-187]	0.04403	0.04405	Rate constant with Cdk2 H71C [5]: 0.06414; Rate constant with Cdk2 S181C [10]: 0.00897
